The text below walks through data of patent publication US10457665B2, “1,4-di-(4-methylthiophenyl)-3-phtaloylazetidine-2-one and the derivatives thereof” (Universite De Nantes, priority 2015, dated 2019).

Each structure is given as a SMILES string.

In the assay the target is T1, CB1R (pcDNA3.1-mCB1) (Mus musculus, UniProt P47746).
T1 construct: expressed in transfected cells; host or cells: HEK293T/17 (ATCC), transient transfection with FuGENE HD
The assay can be described thus: GloSensor cAMP assay in CB1R-transfected HEK293T/17 cells. Format: cell-based. Particulars: HEK293T/17 cells transfected with mCB1, forskolin 1 μM, FIG. 2. The protocol: HEK293T/17 (ATCC) cells were cultured in DMEM 10% FCS, then seeded at 30000 cells/well in 96-well plates. After 24 h, the cells were subjected to transient transfection by FuGENE HD (Promega) by pcDNA3.1-mCB1 (50 ng) and pGlo (100 ng) plasmids with or without pertussis toxin (PTX). For the control assays, the cells were transfected with empty pcDNA3 (EV) and pGlo vectors with or without PTX. At 48 h (24 h post-transfection), the cells were loaded for 2 h with 2% GloReagent in CO2-independent medium with 10% FCS (80 μL/well).
The cells were then treated by adding, at t=0, 10 μL/well of Forskolin (FSK) 1 μM final, in order to increase the basal cAMP concentration. The kinetics of appearance of cAMP was monitored for 10 minutes. At t=10, the molecules to be tested were added and the cAMP variations measured for 20 minutes. The light signal was measured in RLU and is expressed as % response relative to the signal read at t=10 min (FSK1 μM). Sigmoidal curves were obtained by measurement at t=10 min after addition of the molecule to be tested (thus t=20 min total) of the percentage of light signal as a function of molecule concentration. The 4PL regression was carried out using the Sigma Plot software and made it possible to obtain an EC50 (1 experiment, n=3).

T1 sequence (P47746 whole entry): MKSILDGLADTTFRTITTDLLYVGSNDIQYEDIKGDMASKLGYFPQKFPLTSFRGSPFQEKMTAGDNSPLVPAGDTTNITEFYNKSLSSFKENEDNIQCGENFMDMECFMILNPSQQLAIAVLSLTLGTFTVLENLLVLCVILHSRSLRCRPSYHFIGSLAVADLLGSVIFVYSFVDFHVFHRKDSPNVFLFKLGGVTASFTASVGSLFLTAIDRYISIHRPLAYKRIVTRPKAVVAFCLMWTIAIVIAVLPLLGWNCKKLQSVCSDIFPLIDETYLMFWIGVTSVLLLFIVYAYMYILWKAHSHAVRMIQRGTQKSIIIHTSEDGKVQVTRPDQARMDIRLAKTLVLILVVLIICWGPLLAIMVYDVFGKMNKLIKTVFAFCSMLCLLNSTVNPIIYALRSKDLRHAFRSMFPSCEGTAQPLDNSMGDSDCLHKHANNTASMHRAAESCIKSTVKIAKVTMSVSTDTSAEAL

Take `CSc1ccc(C2C(N3C(=O)c4ccccc4C3=O)C(=O)N2c2ccc(SC)cc2)cc1` (stereo not drawn) [JM-00.266, trans-1,4-di-(4-methylthiophenyl)-3-N-phthaloyl-azetidine-2-one]: the “cAMP concentrations in the absence of agonist (AEA)” value was “increased”.
